# Experimental data as given in patent US9232799B2, “N-[(het)arylethyl)] pyrazole(thio)carboxamides and their heterosubstituted analogues” (BAYER INTELLECTUAL PROPERTY GMBH, priority 2010, dated 2016).
# What was measured:
# [1] = tested on: aflatoxines production; experiment: microbe, parasite or virus in culture; type: cell-based, Aspergillus parasiticus; settings: 50 μM
# [2] = tested on: Alternaria solani; experiment: In vivo preventive test on Alternaria solani (tomato); settings: 500 ppm of active ingredient, evaluated 7 days after inoculation
# Text: One day after this treatment, the plants are inoculated with an aqueous spore suspension of Alternaria solani.
# [3] = logP by HPLC on reversed-phase column (C 18), EEC Directive 79/831 Annex V.A8; type: physicochemical
# Experimental: In table 1, the logP values were determined in accordance with EEC Directive 79/831 Annex V.A8 by HPLC (High Performance Liquid Chromatography) on a reversed-phase column (C 18), using the method described below: Temperature: 40° C.; […]
# [4] = tested on: Pyrenophora teres; experiment: In vivo preventive test on Pyrenophora teres (barley); settings: 500 ppm of active ingredient, evaluated 7-9 days after inoculation
# Text: One day after this treatment, the plants are inoculated with an aqueous spore suspension of Pyrenophora teres.
# [5] = tested on: Fusarium graminearum; experiment: microbe, parasite or virus in culture; type: cell-based; settings: 50 μM
SMILES,% Inhibition of Aflatoxin at 50 μM [1],Efficacy [2],logP [3],Efficacy [4],% Inhibition of fungal growth at 50 μM [5]
CN(CCc1ccccc1Cl)C(=O)c1c(C(F)F)nn(C)c1F [Example 35],100%,100%,2.76,100%,100%
CC(CNC(=O)c1c(C(F)F)nn(C)c1F)c1c(F)cccc1F (stereo not shown) [Example 30],100%,100%,2.78,100%,98%
Cc1ccsc1CCNC(=O)c1c(C(F)F)nn(C)c1Cl [Example 163],98%,90%,2.68,95%,80%
Cn1nc(C(F)F)c(C(=O)NC[Si](C)(C)c2cccc(Cl)c2)c1Cl [Example 236],99%,100%,3.71,100%,84%
Cn1nc(C(F)F)c(C(=O)NCCc2cccc(Cl)c2)c1F [Example 47],100%,100%,2.75,100%,100%
Cn1nc(C(F)F)c(C(=O)NCCc2ccsc2Br)c1Cl [Example 165],99%,90%,2.82,95%,81%
CC(c1ccccc1Cl)C(C)N(C(=O)c1c(C(F)F)nn(C)c1Cl)C1CC1 (stereo not shown) [Example 42],100%,80%,4.08,100%,84%
CN(CCc1ccccc1Cl)C(=O)c1c(C(F)F)nn(C)c1Cl [Example 36],100%,100%,2.92,95%,94%
CC(CNC(=O)c1c(C(F)F)nn(C)c1F)c1cc(Cl)ccc1Cl (stereo not shown) [Example 97],100%,95%,3.35,100%,100%
CN(CCc1cc(Cl)ccc1Cl)C(=O)c1c(C(F)F)nn(C)c1F [Example 94],100%,100%,3.17,100%,100%
CC(CNC(=O)c1c(C(F)F)nn(C)c1Cl)c1cc(Cl)ccc1Cl (stereo not shown) [Example 98],100%,95%,3.55,94%,95%
CC(CNC(=O)c1c(C(F)F)nn(C)c1Cl)c1cc(Cl)cc(Cl)c1 (stereo not shown) [Example 112],100%,95%,3.73,100%,83%
Cn1nc(C(F)F)c(C(=O)NCCc2cc(Cl)cc(Cl)c2)c1F [Example 103],100%,90%,3.25,100%,99%
CC(Cc1ccccc1F)N(C(=O)c1c(C(F)F)nn(C)c1Cl)C1CC1 (stereo not shown) [Example 20],86%,95%,3.52,100%,69%
CC(Cc1ccc(Oc2ccccc2)cc1)NC(=O)c1c(C(F)F)nn(C)c1Cl (stereo not shown) [Example 154],99%,100%,3.83,100%,80%
Cn1nc(C(F)F)c(C(=O)NCCc2csc3c2CCCC3)c1Cl [Example 169],91%,80%,3.52,100%,75%
Cc1cccnc1CC(NC(=O)c1c(C(F)F)nn(C)c1F)C(F)(F)F (stereo not shown) [Example 185],100%,95%,1.52,94%,87%
CC(CNC(=O)c1c(C(F)F)nn(C)c1F)c1cc(Cl)cc(Cl)c1 (stereo not shown) [Example 111],100%,95%,3.55,100%,96%
CC(CNC(=O)c1c(C(F)F)nn(C)c1Cl)c1cccc(Cl)c1 (stereo not shown) [Example 52],100%,100%,3.21,100%,83%

SMILES,% Inhibition of Aflatoxin at 50 μM [1],Efficacy [2],logP [3],Efficacy [4],% Inhibition of fungal growth at 50 μM [5]
CC(C)C(CNC(=O)c1c(C(F)F)nn(C)c1F)c1ccc(Cl)cc1 (stereo not shown) [Example 60],100%,100%,3.78,100%,96%
Cc1c(CCNC(=O)c2c(C(F)F)nn(C)c2Cl)sc2ccccc12 [Example 172],100%,100%,3.46,100%,85%
CC(CNC(=O)c1c(C(F)F)nn(C)c1Cl)c1cccc(C(F)(F)F)c1 (stereo not shown) [Example 125],99%,95%,3.35,100%,78%
Cn1nc(C(F)F)c(C(=O)NC[Si](C)(C)c2cccc(Cl)c2)c1F [Example 237],100%,100%,3.55,100%,100%
Cn1nc(C(F)F)c(C(=O)NCCc2ccccc2C(F)(F)F)c1F [Example 121],100%,95%,2.92,100%,100%
CC(Cc1cccc(Oc2ccccc2)c1)NC(=O)c1c(C(F)F)nn(C)c1F (stereo not shown) [Example 146],100%,95%,3.64,100%,83%
CN(CCc1ccccc1C(F)(F)F)C(=O)c1c(C(F)F)nn(C)c1Cl [Example 124],100%,100%,3.13,95%,87%
Cn1nc(C(F)F)c(C(=O)NCCc2cc(Cl)cc(Cl)c2)c1Cl [Example 105],100%,95%,3.42,94%,95%
CC(CNC(=O)c1c(C(F)F)nn(C)c1Cl)c1ccc(Cl)cc1Cl (stereo not shown) [Example 85],100%,100%,3.67,100%,100%
CN(CCc1ccc(C(C)(C)C)cc1)C(=O)c1c(C(F)F)nn(C)c1F [Example 138],100%,100%,3.78,95%,80%
CC(CNC(=O)c1c(C(F)F)nn(C)c1F)c1cccc(C(F)(F)F)c1 (stereo not shown) [Example 126],100%,90%,3.23,100%,98%
CC(C)C(CNC(=O)c1c(C(F)F)nn(C)c1Cl)c1ccc(Cl)cc1 (stereo not shown) [Example 59],100%,100%,3.94,100%,83%
Cn1nc(C(F)F)c(C(=O)NCCc2cccc(Cl)c2)c1Cl [Example 49],100%,100%,2.92,94%,91%
Cn1nc(C(F)F)c(C(=O)NC[Si](C)(C)c2ccccc2)c1F [Example 228],100%,100%,3.13,100%,93%
CC(CNC(=O)c1c(C(F)F)nn(C)c1F)c1ccc(Cl)cc1Cl (stereo not shown) [Example 84],100%,95%,3.46,100%,100%
Cn1nc(C(F)F)c(C(=O)NCCc2ccc(Oc3ccccc3)cc2)c1F [Example 152],100%,95%,3.41,100%,82%
CCC(CNC(=O)c1c(C(F)F)nn(C)c1F)c1ncc(C(F)(F)F)cc1Cl (stereo not shown) [Example 192],100%,100%,3.52,100%,100%
Cn1nc(C(F)F)c(C(=O)NC[Si](C)(C)c2cc(Cl)cc(Cl)c2)c1Cl [Example 243],99%,95%,4.27,100%,84%
CC(CN(C(=O)c1c(C(F)F)nn(C)c1Cl)C1CC1)c1ccccc1 (stereo not shown) [Example 14],100%,100%,3.31,100%,100%
